This passage reports viability results from the supplement of paper PMC6723410.

The first test relates to GUMC-403. Nature of the test: viability at highest tested concentration (max response) relative to DMSO (% of DMSO control); higher = less cytotoxic. The conditions noted are these: library / dose series: MIPE library, 11-point 1:3 dilution; top concentration 4.61 µM; 48 h. The essentials: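 This value is viability at the highest tested concentration relative to vehicle control. GUMC-403 papilloma cells from a patient, grown by conditional reprogramming, were plated at 700/well in 1536-well plates and given 23 nL of compound by pin tool for 48 h. CellTiter-Glo luminescence on a ViewLux was normalised with vehicle wells at 100% and empty wells at 0%.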
`CC(C)(C)[C@H](NC(=O)c1ccc(N)c(Cl)c1)C(=O)N1CCC[C@H]1C(=O)N[C@H](C#N)CC(=O)O`: the viability was 131.

Staying with this test, now noted: library / dose series: MIPE library, 11-point 1:3 dilution; top concentration 23 µM; 48 h.
The molecule `COc1cc(O)c2c(c1)C(=O)c1cc(C)cc(O)c1C2=O` came in with a viability of 114.

The test is the same for the next values; noted with them: library / dose series: MIPE library, 11-point 1:3 dilution; top concentration 46.1 µM; 48 h.
Turning to `O=C(CCCCCCNC(=O)c1cnc(N(c2ccccc2)c2ccccc2)nc1)NO`, the viability came to 117.

On to `N/C(=N\C(=O)c1nc(Cl)c(N)nc1N)NCc1ccccc1`, for which the viability is 130.

Molecule `COc1ccc2cc1Oc1ccc(cc1)C[C@H]1c3cc(c(OC)cc3CCN1C)Oc1c(OC)c(OC)cc3c1[C@H](C2)N(C)CC3` had a viability of 86.

On to `C[S+](=O)([O-])c1cc(F)cc2c3c(n(Cc4ccc(Cl)cc4)c12)[C@@H](CC(=O)O)CC3`, for which the viability was 128.

`CC(C)(C)NC(=O)[C@H]1CC[C@H]2[C@@H]3CC[C@H]4NC(=O)\C=C/[C@]4(C)[C@H]3CC[C@]12C` displayed a viability of 66.2.

Molecule `CCCCC[C@H](O)/C=C/[C@H]1[C@H](O)CC(=O)[C@@H]1CCCCCCC(=O)O` came in with a viability of 107.

The molecule `O=C(NOCC(O)CO)c1cc(Br)c(F)c(F)c1Nc1ccc(I)cc1F` (stereo not drawn) registered a viability of 62.8.

As for `NC(=O)C1CCCc2c1[nH]c1ccc(Cl)cc21` (stereo not drawn), the viability was determined as 96.

In turn, `CC[C@H](NC(C)C)[C@H](O)c1ccc(O)c2[nH]c(=O)ccc12` gave a viability of 123.

Molecule `O=P(O)(O)C(O)(Cc1cccnc1)P(=O)(O)[O][Na]` (stereo not drawn) gave a viability of 123.

Take `OC[C@H]1O[C@H]([C@@H](F)[C@@H]1O)N2\C=C/C(=O)NC2=O`: the viability came out at 116.

With `O=c1cc(-c2ccc(O)c(O)c2)oc2cc(O)cc(O)c12`, the viability worked out at 115.

For the molecule `O=C(c1ccc(OCCN2CCCCC2)cc1)c1c(-c2ccc(O)cc2)sc2cc(O)ccc12`, the viability stood at 94.4.

Turning to `O=C1NCCc2[nH]c(-c3ccncc3)cc21`, the viability came to 125.

In turn, `O=C(C1CCCCC1)N1CC(=O)N2CCc3ccccc3C2C1` (stereo not drawn) came in with a viability of 109.

`CN1\C(=C(\O)C2=C(C=CC=C2)[S+]1([O-])=O)C(=O)NC3=CC=CC=N3`: the viability amounted to 99.

In turn, `NC(=O)c1cccc(-c2cccc(OC(=O)NC3CCCCC3)c2)c1` registered a viability of 104.

On to `O=C(/C=C/c1ccc(O)cc1)c1ccc(O)cc1O`, for which the viability was found to be 77.

In the case of `CCCCC(F)(F)[C@@]1(O)CC[C@H]2[C@@H](CC(=O)[C@@H]2CCCCCCC(=O)O)O1`, the viability amounted to 110.

As to `CC1CCN(c2cc(N3CCN(C)CC3)ccc2NC(=O)c2cc(C#N)c[nH]2)CC1`, the viability is 116.

On to `C[C@H]([C@H](O)CCC(C)(C)O)[C@H]1CC[C@@]2(O)C/3=C/C(=O)[C@@H]4C[C@@H](O)[C@@H](O)C[C@]4(C)[C@H]3CC[C@]12C`, for which the viability was 120.

Regarding `CCCCCNC(=N)N/N=C/c1c[nH]c2ccc(OC)cc12`, the viability was found to be 69.6.

Consider `CC[C@@H]([C@H](C)O)n1ncn(-c2ccc(N3CCN(c4ccc(OCC5CO[C@@](Cn6cncn6)(c6ccc(F)cc6F)C5)cc4)CC3)cc2)c1=O` (stereo partly drawn), for which the viability was 101.

As to `Oc1c(Cl)cc(Cl)c2cccnc12`, the viability is 128.

On to `OC[C@H](Cc1ccccc1)Nc1nc(Oc2ccc3c(c2)CCC3)nc2c1ncn2Cc1ccc(-c2ccccc2)cc1`, for which the viability came to 101.

On to `COc1ccccc1OCC(O)COC(N)=O` (stereo not drawn), for which the viability was determined as 117.

In the case of `OC(Cn1cncn1)(Cn1cncn1)c1ccc(F)cc1F`, the viability came out at 130.

As for `CC(C)(O)C(=O)Nc1ccc([N+](=O)[O-])c(C(F)(F)F)c1`, the viability was determined as 112.

In the case of `C/C=C/C[C@@H](C)C(=O)[C@H]1C(=O)N[C@@H](C(C)C)C(=O)N(C)CC(=O)N(C)[C@@H](CC(C)C)C(=O)N[C@@H](C(C)C)C(=O)N(C)[C@@H](CC(C)C)C(=O)N[C@@H](C)C(=O)N[C@H](C)C(=O)N(C)[C@@H](CC(C)C)C(=O)N(C)[C@@H](CC(C)C)C(=O)N(C)[C@@H](C(C)C)C(=O)N1C`, the viability was 90.6.

In turn, `Cl.c1cnc2cc3c(cc2n1)C1CNCC3C1` registered a viability of 107.

`OC1=CC=C(C=C1)\C2=C(O)\C(=O)C3=C(O2)C=C(O)C=C3O`: the viability was 160.

`O=C(O)[C@@H](c1ccc(OCc2ccc3ccccc3n2)cc1)C1CCCC1` gave a viability of 108.

Molecule `NNc1nncc2ccccc12` displayed a viability of 117.

Molecule `CC(=O)OC\C1=C(\[N@]2[C@@H](SC1)[C@H](N)C2=O)C(O)=O` had a viability of 143.

In the case of `Cc1cccc(N(C)C(=S)Oc2ccc3ccccc3c2)c1`, the viability was determined as 139.

Turning to `CC(C)(O)CC[C@@H](O)[C@](C)(O)[C@H]1CC[C@@]2(O)C/3=C/C(=O)[C@@H]4C[C@@H](O)[C@@H](O)C[C@]4(C)[C@H]3CC[C@]12C`, the viability was found to be 111.

For the molecule `Cc1cc(OCCC[S+](C)(=O)[O-])cc(C)c1-c1cccc(COc2ccc3c(c2)OC[C@H]3CC(=O)O)c1`, the viability turned out to be 112.

Take `Cc1cn2cc(C(=O)N(C)CCO)cc(N[C@@H]3CCOc4cccc(C)c43)c2n1`: the viability stood at 144.

Take `S=C1N\C=N/C2=C1[NH]C=N2`: the viability was 103.

The molecule `CCOC(=O)C(C)OC1=CC=CC2=C1\C=C/N(CC(=O)NC3=CC=C4OCCOC4=C3)C2=O` (stereo not drawn) yielded a viability of 105.

Regarding `OC[C@H]1O[C@@H](Oc2cc(O)cc(/C=C/c3ccc(O)cc3)c2)[C@H](O)[C@@H](O)[C@@H]1O`, the viability turned out to be 128.

The molecule `CNC(=O)c1ccc(N2C(=S)N(c3ccc(C#N)c(C(F)(F)F)c3)C(=O)C2(C)C)cc1F` yielded a viability of 119.

On to `NCCc1ccc(O)c(O)c1`, for which the viability turned out to be 108.

`COC1=NC(=NC(=C1N\C2=N\CCN2)Cl)C` had a viability of 95.8.

Take `N#Cc1ccc(Oc2ccc3c(c2)COB3O)cc1`: the viability is 124.

The molecule `CCN(CC)CCOc1ccc(/C(=C(\Cl)c2ccccc2)c2ccccc2)cc1` gave a viability of 114.

`C\C1=C(\C=C(\C#N)C(=O)N1)C2=CC=NC=C2` displayed a viability of 119.

Molecule `Cn1cnc(N)c2ncnc1-2` showed a viability of 82.9.

`Clc1cccc(-c2nnnn2Cc2cccnc2)c1Cl`: the viability was determined as 113.

`CN(C)Cc1c(C(=O)NCCOc2ccc(C(=O)NO)cc2)oc2ccccc12` came in with a viability of 82.5.

On to `C[C@H](O)[C@H]1[C@@H]2[C@H](C)C(=C(\N2C1=O)C(O)=O)/S[C@@H]3CN[C@H](CN[S+](N)([O-])=O)C3`, for which the viability turned out to be 120.

As for `O=C(CN1C(=O)C2(CCCC2)NC[C@H]1c1cc(F)cc(F)c1)Nc1ccc2c(c1)C[C@@]1(C2)C(=O)Nc2ncccc21`, the viability was determined as 148.

In the case of `O=C(Nc1nc2cccc(-c3ccc(CN4CC[S+](=O)([O-])CC4)cc3)n2n1)C1CC1`, the viability was 40.4.

`O=C1CCc2cc(OCCCCc3nnnn3C3CCCCC3)ccc2N1` yielded a viability of 107.

Molecule `CC1(C)NC(=O)N(c2ccc([N+](=O)[O-])c(C(F)(F)F)c2)C1=O` yielded a viability of 75.8.

Regarding `O=[N+]([O-])c1ccc(Nc2ccccc2-c2ccccc2)c2nonc12`, the viability stood at 106.
